# Patent US8883841B2, “Oncogenic ras-specific cytotoxic compound and methods of use thereof” (The Board of Regents of the University of Texas System, priority 2005, dated 2014)
# Entries after “also recorded” stand apart in the source; their conditions may differ.
# Tests used:
# phosphorylated PKCiota = assay: Western blot analysis of phosphorylated PKCiota; type: cell-based, human; conditions: 12 h
# Protocol: (§1) Ras Signaling Pathway and Molecular Mechanisms of Oncrasin-induced apoptosis. To investigate molecular mechanisms of apoptosis induction by Oncrasin compounds, levels several proteins that are involved in apoptosis and/or involved in Ras signaling pathways were determined, including Bax, Bik, Bc12, Bcl-XL, Raf-1, B-Raf, Akt, Mst1 and atypical protein kinase C (aPKC) zeta and PKCiota. To study which molecules are affected by Oncrasin treatment, T29, T29Kt1 and H460 cells were treated with Oncrasin-1 at an optimal concentration, around IC60 to IC80 for T29Kt1 and H460 cells. Cell lysates were collected 12 h after the treatment and subjected to Western blot analysis.
# H460 cells = assay: K-Ras siRNA knockdown, Oncrasin-induced apoptosis by FACS in H460 cells; type: cell-based, human; conditions: 1 μM, 12 h, compared with DMSO
# Protocol: K-Ras knockdown inhibited Oncrasin-induced apoptosis. To further study the role of K-Ras gene in Oncrasin-induced cell death, H460 cells were treated with […] of K-Ras specific siRNA or a control siRNA for 24 h. The cells were then treated with DMSO or 1 μM Oncrasin-1. After another 12 h, the cells were harvested for apoptosis detection by fluorescence-activated cytometric assay. The cell lysate was also used to detect K-Ras gene expression.
# Raf-1 = assay: Western blot analysis of Raf-1 expression; type: cell-based, human; conditions: listed as Oncrasin-1
# Protocol: as §1
# Suppression of Raf-1 expression by Oncrasin-1. […] To elucidate the roles of Raf-1 in Oncrasin-induced apoptosis, the inventors evaluated the expression of Raf-1 in H460 cells after treatment with different concentrations of Oncrasin-1. […] Because Raf-1 executes anti-apoptosis function via a variety of pathways. […] However, the resistance to Oncrasin-1 was more prominent in the constitutively active Raf-1-transfected cells than in cells with the wild-type Raf-1 (FIG. 10C and FIG. 10D).
# SC35 = assay: Antibody staining, subcellular localization of SC35 (spliceosome); type: cell-based, human
# Source text: Effects on RNA spliceosome. To investigate the nature of this PKCiota aggregates in the nucleus, the effect of Oncrasin-1 on SC35, a protein required for RNA splicing and assembly of spliceosome (Fu et al., 1992; Vellard et al., 1992), and on Rad51, a homologous DNA recombinase that involves in DNA repair (Benson et al., 1994; Baumann et al., 1996) were studied. […] and DNA repairing are the two important functions executed in the nucleus. In untreated or DMSO-treated cells, SC35 was localized in nucleus as speckles, either diffusely distributed or concentrated as granule clusters (Mistele et al., 1997), whereas Rad51 was more uniformly distributed inside the nucleus. […] This aggregation of SC35 was not observed in Oncrasin resistant T29 cells upon the treatment with Oncrasin-1. […] The effects of Oncrasin on another spliceosome protein, alternative splicing factor/splicing factor 2 (ASF/SF2), was studied (Krainer et al., 1991). […] In the resistant T29 cells, however, such an aggregation is not observed (FIG. 8C).
# [1] = test system: TNFα-induced NFκB activation; assay: NFκB reporter plasmid (pNFκB-Luc) luciferase assay in T29Kt1 cells; type: cell-based, human; conditions: 10 μM, TNFα 1 ng/ml, 8 h
# Protocol: FIGS. 11A-11C Suppression of TNFα-induced NFκB activation. NKκB reporter plasmid assay. T29K cells were transfected with pNFκB-Luc and pCMV-lacZ. 12 h later, the cells were treated with TNFα (1 ng/ml) with or without (FIG. 11A) Oncrasin-1 (10 μM) or (FIG. 11B) Sulindac (10 μm). The luciferase activity was determined at 8 h after the treatment and normalized with beta-gal activity. (FIG. 11C) H460 and T29K cells were treated with DMSO or different concentrations of Oncrasin-1 as indicated for 12 h, with or without TNFα (1 ng/ml). The NFκB activity was analyzed by EMSA.
# Suppression of NFκB. In a separated study, the effect of Oncrasin compounds on NF-κB activity was assessed. Nuclear factor-κB (NF-κB)/Rel represents a group of structurally related and evolutionarily conserved transcriptional factors that play critical roles in chronic and acute inflammatory diseases, autoimmune diseases and various type of cancers (Karin and Neriah, 2000; Karin and Karin, 2006; Barnes et al., 1997). In unstimulated cells, most NF-κB/Rel dimers are bound to IκBs and retained in the cytoplasm. Upon a various stimulations, IκBs are phosphorylated and rapidly degraded, releasing NF-κB, which then enters the nucleus and executes transcriptional functions. […] The luciferase activity was determined and normalized for transfection with beta-galactosidase activity. […]
# T29Kt1 cells = assay: cells; conditions: Homo sapiens, T29Kt1, read-out: IC50 in T29k cells, Table 1
SMILES,phosphorylated PKCiota in H460 and T29K cells (phosphorylated PKCiota),phosphorylated PKCiota in T29 cells (phosphorylated PKCiota),"apoptotic cells, control siRNA treated H460 (H460 cells)",Raf-1 level in H460 cells (Raf-1),"SC35 localization, T29Kt1 cells (SC35)","SC35 aggregation, T29 cells (SC35; Oncrasin resistant cells)",suppression of TNFα-induced NFκB activation (luciferase) [1],IC50 (T29Kt1 cells) [µM]
"O=Cc1cn(Cc2ccc(Cl)cc2)c2ccccc12 [Oncrasin K001, 1H-Indole-3-carboxaldehyde, 1-[(4-chlorophenyl)methyl]-(9CI)]",increase in phosphorylated PKCiota,but not in Oncrasin-1 resistant T29 cells,dramatic increase of apoptotic cells,dramatically reduces raf-1; also recorded: down regulation; also recorded: dramatically reduced Raf-1 production; also recorded: dramatic reduction in Raf-1,aggregation of SC35 into several large foci,not observed,more active than Sulindac,–
"OCc1cn(Cc2ccc(Cl)cc2)c2ccccc12 [Oncrasin K060, 1H-Indole-3-methanol, 1-[(4-chlorophenyl)methyl]-]",–,–,–,–,–,–,–,0.0794
